# Laboratory results as given in US10377774B2 (JINAN UNIVERSITY, priority 2013, dated 2019).
# Marks after values point to notes of the source that are not given here.
# What was measured:
# [1] = system: human non-small-cell lung cancer cell line A549; assay: MTT cell growth inhibition, A549; format: cell-based; details: Homo sapiens; A549, MTT assay, 72 h; read-out: IC50, growth of tumor cell line
# [2] = system: human colon cancer cell line LOVO; assay: MTT cell growth inhibition, LOVO; format: cell-based; details: Homo sapiens; LOVO (FAPα positive), MTT assay, 72 h; read-out: IC50, growth of tumor cell line
# From the text: (§3) Experimental method: Cell lines (human non-small-cell lung cancer cell line A549, human colon cancer cell line LOVO, human nasopharyngeal carcinoma cell line CNE-2, human liver cancer cell line HepG2, human cervical carcinoma cell line Hela, human breast cancer cell lines MCF-7 and MDA-MB-231, human gastric carcinoma cell line NCI-N87, human prostatic cancer cell lines PC-3 and DU145, human leukemia cell line K562, human melanoma cell line A375, human neuroblastoma cell line SH-SY5H, human promyelocytic leukemia cell line HL-60, 5-FU-resistant human hepatocellular carcinoma cell line BEL-7402/5-Fu, doxorubicin-resistant hepatocellular carcinoma cell line HepG2/ADM, doxorubicin-resistant human breast cancer cell lines MCF-7/ADR) at logarithmic phase were resuspended in RPMI 1640 medium (containing 10% fetal bovine serum, 100 U/mL penicillin-streptomycin). Then, 100 μL of cells (cell concentration was 5×10^5/mL) were seeded into 96 wells plate. After 24 h incubation at 37° C. with 5% CO2, tested compounds were added (the control group without compound) for an additional 72 h incubation. After that, 30 μL of MTT [3-(4,5-Dimethylthiazol-2-yl)-2,5-diphenyltetrazolium bromide] solution (5 mg/mL) was added into each well and incubated for another 4 h at 37° C. and then the formazan crystals were solubilized with 100 μL DMSO. Finally, absorbance of each well was determined at 570 nm by a microplate reader (Thermo).
# (§4) The concentration required to inhibit cell growth by 50% (IC50) was calculated from survival curves.
# [3] = system: human nasopharyngeal carcinoma cell line CNE-2; assay: MTT cell growth inhibition, CNE-2; format: cell-based; details: Homo sapiens; CNE-2, MTT assay, 72 h; read-out: IC50, growth of tumor cell line
# [4] = system: human liver cancer cell line HepG2; assay: MTT cell growth inhibition, HepG2; format: cell-based; details: Homo sapiens; HepG2, MTT assay, 72 h; read-out: IC50, growth of tumor cell line
# From the text: as §3, §4
# [5] = system: human cervical carcinoma cell line Hela; assay: MTT cell growth inhibition, Hela; format: cell-based; details: Homo sapiens, MTT assay, 72 h, read-out: IC50, growth of tumor cell line
# From the text: as §3, §4
# [6] = system: human breast cancer cell line MCF-7; assay: MTT cell growth inhibition, MCF-7; format: cell-based; details: Homo sapiens, MCF7; MCF-7, MTT assay, 72 h; read-out: IC50, growth of tumor cell line
# [7] = system: human breast cancer cell line MDA-MB-231; assay: MTT cell growth inhibition, MDA-MB-231; format: cell-based; details: Homo sapiens; MDA-MB-231, MTT assay, 72 h; read-out: IC50, growth of tumor cell line
# From the text: as §3, §4
# [8] = system: human gastric carcinoma cell line NCI-N87; assay: MTT cell growth inhibition, NCI-N87; format: cell-based; details: Homo sapiens; NCI-N87, MTT assay, 72 h; read-out: IC50, growth of tumor cell line
# From the text: as §3, §4
# [9] = system: human prostatic cancer cell line PC-3; assay: MTT cell growth inhibition, PC-3; format: cell-based; details: Homo sapiens; PC-3, MTT assay, 72 h; read-out: IC50, growth of tumor cell line
# From the text: as §3, §4
# [10] = system: human prostatic cancer cell line DU145; assay: MTT cell growth inhibition, DU-145; format: cell-based; details: Homo sapiens; DU-145, MTT assay, 72 h; read-out: IC50, growth of tumor cell line
# From the text: as §3, §4
# [11] = system: human leukemia cell line K562; assay: MTT cell growth inhibition, K562; format: cell-based; details: Homo sapiens; K562, MTT assay, 72 h; read-out: IC50, growth of tumor cell line
# [12] = system: human melanoma cell line A375; assay: MTT cell growth inhibition, A375; format: cell-based; details: Homo sapiens, A-375; A375, MTT assay, 72 h; read-out: IC50, growth of tumor cell line
# From the text: as §3, §4
# [13] = system: human neuroblastoma cell line SH-SY5H; assay: MTT cell growth inhibition, SH-SY5H; format: cell-based; details: Homo sapiens, Neuroblastoma cell, MTT assay, 72 h, read-out: IC50, growth of tumor cell line
# From the text: as §3, §4
# [14] = system: human promyelocytic leukemia cell line HL-60; assay: MTT cell growth inhibition, HL-60; format: cell-based; details: Homo sapiens; HL-60, MTT assay, 72 h; read-out: IC50, growth of tumor cell line
# From the text: as §3, §4
# [15] = system: 5-FU-resistant human hepatocellular carcinoma cell line BEL-7402/5-Fu; assay: MTT cell growth inhibition, BEL-7402/5-Fu; format: cell-based; details: Homo sapiens, Bel7402/5-FU, MTT assay, 72 h, read-out: IC50, growth of tumor cell line
# [16] = system: doxorubicin-resistant hepatocellular carcinoma cell line HepG2/ADM; assay: MTT cell growth inhibition, HepG2/ADM; format: cell-based, human; details: Homo sapiens, MTT assay, 72 h, read-out: IC50, growth of tumor cell line
# [17] = system: doxorubicin-resistant human breast cancer cell lines MCF-7/ADR; assay: MTT cell growth inhibition, MCF-7/ADR; format: cell-based; details: Homo sapiens, NCI/ADR-RES, MTT assay, 72 h, read-out: IC50, growth of tumor cell line
# From the text: as §3, §4
# [18] = system: MDA-MB-231 xenografts; assay: MDA-MB-231 xenografts in nude mice; format: in vivo, BALB/nu/nu mice; details: MDA-MB-231 xenograft nude mice; for Anti-tumor rate (%) / Body weight (g) Post-dose / Tumor weight: 1 mg/kg i.p. every two days, 8 administrations; for Body weight (g) Pre-dose: before dosing
# Procedure: (§1) Experimental method: The MDA-MB-231 cells at logarithmic phase were digested and washed twice with PBS. Then, 100 μL cells (1×10^7) were inoculated subcutaneously on the backs of female BALB/nu/nu mice. After tumors grew to 70˜100 mm^3, the mice were divided randomly into saline group (control group), vinca alkaloids groups (VLB, CCRB, CCFN, CCXJ) and vinca alkaloid derivatives groups (JJ-CCJ, BX-CCJ, JJ-CCRB, BX-CCRB, JJ-CCFN, BX-CCFN, JJ-CCXJ and BX-CCXJ), with six mice per group. 1 mg/kg drugs were injected intraperitoneally every two days, meanwhile body weight and tumor sizes were measured. Experiment was ended after 8 times of drug administration, then tumor and organs were stripped. Tumor volumes were measured using the following formula: V=½(ab^2), whereas a refers to the longest diameter and b is the shortest diameter.
# [19] = system: HepG2 xenografts; assay: HepG2 xenografts in nude mice; format: in vivo; details: HepG2 xenograft nude mice; for Anti-tumor rate (%) / Body weight (g) Post-dose / Tumor weight: 1 mg/kg; for Body weight (g) Pre-dose: before dosing
# Procedure: as §1
# (§2) Tumor xenograft models of HepG2, LOVO, K562 and HL-60 cell lines were performed as the method described above.
# [20] = system: LOVO xenografts; assay: LOVO xenografts in nude mice; format: in vivo; details: LOVO xenograft nude mice; for Anti-tumor rate (%) / Body weight (g) Post-dose / Tumor weight: 1 mg/kg; for Body weight (g) Pre-dose: before dosing
# Procedure: as §1, §2
# [21] = system: K562 xenografts; assay: K562 xenografts in nude mice; format: in vivo; details: K562 xenograft nude mice; for Anti-tumor rate (%) / Body weight (g) Post-dose / Tumor weight: 1 mg/kg; for Body weight (g) Pre-dose: before dosing
# Procedure: as §1, §2
# [22] = system: HL-60 xenografts; assay: HL-60 xenografts in nude mice; format: in vivo; details: HL-60 xenograft nude mice; for Anti-tumor rate (%) / Body weight (g) Post-dose / Tumor weight: 1 mg/kg; for Body weight (g) Pre-dose: before dosing
# Procedure: as §1, §2
# [23] = MTT cytotoxicity on normal cells, LO2; details: human, LO2 cells (human normal liver cells)
# [24] = MTT cytotoxicity on normal cells, HUVEC; details: human, HUVEC (human umbilical vein endothelial cells)
# Procedure: Then, 100 μL of cells (cell concentration was 5×10^5/mL) were seeded into 96 wells plate. After 24 h incubation at 37° C. with 5% CO2, tested compounds were added (the control group without compound) for an additional 72 h incubation. After that, 30 μL of MTT [3-(4,5-Dimethylthiazol-2-yl)-2,5-diphenyltetrazolium bromide] solution (5 mg/mL) was added into each well and incubated for another 4 h at 37° C. and then the formazan crystals were solubilized with 100 μL DMSO. Finally, absorbance of each well was determined at 570 nm by a microplate reader (Thermo).
# The standard curve was drew with compound concentrations as the abscissa and cell growth inhibition rates as the ordinate. The concentration required to inhibit cell growth by 50% (IC50) was calculated from survival curves.
# Experimental method: In vitro cytotoxicities of vinca alkaloids, hydrazinolyzed vinca alkaloids and vinca alkaloid dipeptide derivatives on human normal liver cells LO2 and human umbilical vein endothelial cells HUVEC were detected according to the method of Example 2.
Structure (SMILES),IC50 [1] [nM],IC50 [2] [nM],IC50 [3] [nM],IC50 [4] [nM],IC50 [5] [nM],IC50 [6] [nM],IC50 [7] [nM],IC50 [8] [nM],IC50 [9] [nM],IC50 [10] [nM],IC50 [11] [nM],IC50 [12] [nM],IC50 [13] [nM],IC50 [14] [nM],IC50 [15] [nM],IC50 [16] [nM],IC50 [17] [nM],Anti-tumor rate (%) [18],Body weight (g) Post-dose [18] [g],Tumor weight [18] [g],also measured
"CC[C@]12C=CCN3CC[C@@]4(c5cc([C@@]6(C(=O)OC)C[C@@H]7C[C@@H](C(C)(F)F)CN(Cc8c6[nH]c6ccccc86)C7)c(OC)cc5N(C)[C@H]4[C@@](O)(C(=O)NN)[C@@H]1O)[C@@H]32 [JJ-CCFN, hydrazinolyzed vinflunine]",206 ± 6.79,313 ± 7.64,198 ± 7.71,103 ± 6.37,132 ± 6.67,304 ± 9.44,333 ± 12.5,133 ± 6.7,98.3 ± 3.19,90.8 ± 5.45,55.9 ± 7.59,132 ± 9.51,159 ± 20.4,198 ± 19.5,166 ± 5.77,277 ± 9.67,713 ± 25.6,75.10** %,16.3 ± 0.7,0.65 ± 0.13,Body weight (g) Pre-dose [18]: 19.7 ± 2.1 g; Anti-tumor rate (%) [19]: 75.69** %; Body weight (g) Post-dose [19]: 16.5 ± 0.4 g; Tumor weight [19]: 0.62 ± 0.19 g; Body weight (g) Pre-dose [19]: 22.3 ± 1.7 g; Anti-tumor rate (%) [20]: 76.31** %; Body weight (g) Post-dose [20]: 18.9 ± 2.1 g; Tumor weight [20]: 0.68 ± 0.13 g; Body weight (g) Pre-dose [20]: 22.7 ± 1.5 g; Anti-tumor rate (%) [21]: 57.74** %; Body weight (g) Post-dose [21]: 17.4 ± 0.9 g; Tumor weight [21]: 0.71 ± 0.21 g; Body weight (g) Pre-dose [21]: 21.5 ± 2.1 g; Anti-tumor rate (%) [22]: 60.10** %; Body weight (g) Post-dose [22]: 17.3 ± 0.1 g; Tumor weight [22]: 0.83 ± 0.13 g; Body weight (g) Pre-dose [22]: 19.2 ± 1.9 g
"CCC1=C[C@@H]2CN(C1)Cc1c([nH]c3ccccc13)[C@@](C(=O)OC)(c1cc3c(cc1OC)N(C)[C@H]1[C@@](O)(C(=O)NN)[C@H](O)[C@]4(CC)C=CCN5CC[C@]31[C@@H]54)C2 [JJ-CCRB, hydrazinolyzed vinorelbine]",73.1 ± 2.36,121 ± 10.3,100 ± 5.9,89.31 ± 0.71,61.3 ± 3.12,122 ± 5.75,101 ± 7.65,89 ± 3.34,65.9 ± 3.05,60.4 ± 7.01,49.7 ± 3.39,20.4 ± 2.85,32.9 ± 3.27,46.8 ± 5.41,143 ± 8.57,182 ± 4.38,–,77.39** %,16.7 ± 1.4,0.59 ± 0.18,Body weight (g) Pre-dose [18]: 21.0 ± 2.7 g; Anti-tumor rate (%) [19]: 75.29** %; Body weight (g) Post-dose [19]: 17.0 ± 0.8 g; Tumor weight [19]: 0.63 ± 0.29 g; Body weight (g) Pre-dose [19]: 21.9 ± 1.6 g; Anti-tumor rate (%) [20]: 69.69** %; Body weight (g) Post-dose [20]: 16.4 ± 0.7 g; Tumor weight [20]: 0.87 ± 0.16 g; Body weight (g) Pre-dose [20]: 23.2 ± 2.1 g; Anti-tumor rate (%) [21]: 59.52** %; Body weight (g) Post-dose [21]: 18.2 ± 0.5 g; Tumor weight [21]: 0.68 ± 0.20 g; Body weight (g) Pre-dose [21]: 21.8 ± 1.4 g; Anti-tumor rate (%) [22]: 65.38** %; Body weight (g) Post-dose [22]: 17.1 ± 0.3 g; Tumor weight [22]: 0.72 ± 0.21 g; Body weight (g) Pre-dose [22]: 19.5 ± 1.3 g
"CC[C@]1(O)C[C@@H]2CN(CCc3c([nH]c4ccccc34)[C@@](C(=O)OC)(c3cc4c(cc3OC)N[C@H]3[C@@](O)(C(=O)NN)[C@H](O)[C@]5(CC)C=CCN6CC[C@]43[C@@H]65)C2)C1 [JJ-CCXJ, hydrazinolyzed vincristine]",4.34 ± 0.42,24.3 ± 1.09,8.37 ± 2.7,12.3 ± 1.96,23.6 ± 2.97,26.9 ± 4.38,7.37 ± 1.18,10.7 ± 1.78,27.1 ± 2.18,18.4 ± 3.67,12.1 ± 1.67,15.6 ± 2.38,18.7 ± 2.54,32.5 ± 3.51,106 ± 5.87,44.9 ± 3.67,63.2 ± 7.74,75.86** %,17.3 ± 1.2,0.63 ± 0.15,Body weight (g) Pre-dose [18]: 21.1 ± 2.5 g; Anti-tumor rate (%) [19]: 79.21** %; Body weight (g) Post-dose [19]: 17.8 ± 0.9 g; Tumor weight [19]: 0.53 ± 0.12 g; Body weight (g) Pre-dose [19]: 22.0 ± 2.1 g; Anti-tumor rate (%) [20]: 73.52** %; Body weight (g) Post-dose [20]: 17.5 ± 1.3 g; Tumor weight [20]: 0.76 ± 0.16 g; Body weight (g) Pre-dose [20]: 22.9 ± 2.3 g; Anti-tumor rate (%) [21]: 60.12** %; Body weight (g) Post-dose [21]: 17.1 ± 0.3 g; Tumor weight [21]: 0.67 ± 0.22 g; Body weight (g) Pre-dose [21]: 22.4 ± 1.7 g; Anti-tumor rate (%) [22]: 59.62** %; Body weight (g) Post-dose [22]: 16.3 ± 0.6 g; Tumor weight [22]: 0.84 ± 0.13 g; Body weight (g) Pre-dose [22]: 19.7 ± 1.5 g
"CC[C@]12C=CCN3CC[C@@]4(c5cc([C@@]6(C(=O)OC)C[C@@H]7C[C@@H](C(C)(F)F)CN(Cc8c6[nH]c6ccccc86)C7)c(OC)cc5N(C)[C@H]4[C@@](O)(C(=O)OC)[C@@H]1OC(C)=O)[C@@H]32 [Vinflunine, reference compound]",137 ± 4.1,146 ± 7.21,67.4 ± 3.42,32.1 ± 2.17,56.7 ± 4.47,77 ± 2.74,61.3 ± 7.44,57.5 ± 3.95,31.1 ± 5.34,22.3 ± 1.67,19.3 ± 2.48,39.8 ± 5.29,52.4 ± 6.81,41.8 ± 6.85,45.7 ± 3.98,67.1 ± 4.39,154 ± 3.95,–,–,–,–
"CCC1=C[C@@H]2CN(C1)Cc1c([nH]c3ccccc13)[C@@](C(=O)OC)(c1cc3c(cc1OC)N(C)[C@H]1[C@@](O)(C(=O)OC)[C@H](OC(C)=O)[C@]4(CC)C=CCN5CC[C@]31[C@@H]54)C2 [Vinorelbine, reference compound]",14.5 ± 1.07,7.86 ± 0.16,9.03 ± 0.35,8.34 ± 0.53,11.4 ± 1.04,49.5 ± 2.01,39.7 ± 5.79,35.8 ± 6.57,23.7 ± 4.31,19.9 ± 0.57,12.2 ± 0.54,5.64 ± 0.95,4.78 ± 0.84,8.68 ± 1.35,36.1 ± 4.78,24.4 ± 3.82,–,–,–,–,IC50 at 72 h [23]: 0.97 ± 0.08 nM; IC50 at 72 h [24]: 1.13 ± 0.56 nM
